Reference: patent US20130065922A1, “NOVEL AMIDES AS FUNGICIDES” (priority 2010, published 2013)
Like-named read-outs stand apart in the source and are kept apart here.

How the values were obtained:
Phytophthora infestans = assay: whole plant or invertebrate; assay type: in vivo; conditions: in Solanum lycopersicum, foliar, read-out: inhibit fungal infestation
Plasmopara viticola = assay: whole plant or invertebrate; assay type: in vivo; conditions: foliar, read-out: inhibit fungal infestation
[1] = system: Blumeria graminis f. Sp. tritici (Erysiphe graminis f. Sp. tritici); assay: Blumeria graminis f. Sp. tritici (Erysiphe graminis f. Sp. tritici)/Wheat/Leaf Disc Preventative (Powdery Mildew on Wheat); assay type: in vivo; conditions: foliar, read-out: inhibit fungal infestation
[2] = system: Phaeosphaeria nodorum (Septoria nodorum); assay: Phaeosphaeria nodorum (Septoria nodorum)/Wheat/Leaf Disc Preventative (Glume Blotch); assay type: in vivo; conditions: Parastagonospora nodorum, foliar, read-out: inhibit fungal infestation
Pythium ultimum = assay: Pythium ultimum/Liquid Culture (Seedling Damping Off); assay type: cell-based; conditions: Globisporangium ultimum, read-out: inhibit fungal infestation
[3] = 200 ppm, wheat leaf segments cv. Kanzler, preventative, 6-8 days after application, untreated control infected to over 80%
[4] = 200 ppm, wheat leaf segments cv. Kanzler, preventative, 5-7 days after application, untreated control infected to over 80%
[5] = 200 ppm, liquid culture (PDB), 24° C., growth inhibition photometrically 2-3 days after application

SMILES	inhibition at 200 ppm (Phytophthora infestans) [%]	inhibition at 200 ppm (Plasmopara viticola) [%]	inhibition at 200 ppm [1] [%]	inhibition at 200 ppm [2] [%]	inhibition at 200 ppm (Pythium ultimum) [%]	melting point [°C]	inhibition at 200 ppm [1, 3] [%]	inhibition at 200 ppm [2, 4] [%]	inhibition at 200 ppm (Pythium ultimum; [5]) [%]
COCC#CC(C)(C)NC(=O)C(Oc1cc(C)c2ncc(OC)cc2c1)SC (stereo not shown) [Compound 17, N-(4-Methoxy-1,1-dimethyl-but-2-ynyl)-2-(3-methoxy-8-methyl-quinolin-6-yloxy)-2-methylsulfanyl-acetamide]	≥ 80	≥ 80	≥ 80	≥ 80	≥ 80	94 to 98	–	–	–
CC#CC(C)(C)NC(=O)C(Oc1ccc2ncc(OC)cc2c1)SC (stereo not shown) [Compound 11, N-(1,1-Dimethyl-but-2-ynyl)-2-(3-methoxy-quinolin-6-yloxy)-2-methylsulfanyl-acetamide]	≥ 80	≥ 80	≥ 80	≥ 80	≥ 80	137 to 139	–	–	–
CO/N=C/C(C)(C)NC(=O)C(Oc1cc(Cl)c2ncc(OC)cc2c1)SC (stereo not shown) [Compound 15, 2-(8-Chloro-3-methoxy-quinolin-6-yloxy)-N-(2-methoxyimino-1,1-dimethyl-ethyl)-2-methylsulfanyl-acetamide]	≥ 80	≥ 80	–	–	–	124 to 125	≥ 80	≥ 80	≥ 80
CSc1cnc2ccc(OC(SC)C(=O)NC(C)(C#N)C3CC3)cc2c1 (stereo not shown) [Compound 65, N-(Cyano-cyclopropyl-methyl-methyl)-2-methylsulfanyl-2-(3-methyl-sulfanyl-quinolin-6-yloxy)-acetamide]	≥ 80	≥ 80	–	–	–	–	–	≥ 80	≥ 80
CCOc1cnc2c(C)cc(OC(SC)C(=O)NC(C)(C)/C=N/OC)cc2c1 (stereo not shown) [Compound 21, 2-(3-Ethoxy-8-methyl-quinolin-6-yloxy)-N-(2-methoxyimino-1,1-dimethyl-ethyl)-2-methylsulfanyl-acetamide]	≥ 80	≥ 80	–	–	–	125 to 126	≥ 80	≥ 80	≥ 80
C#CC(C)(C#C)NC(=O)C(Oc1cc(C)c2ncc(OCC)cc2c1)SC (stereo not shown) [Compound 23, 2-(3-Ethoxy-8-methyl-quinolin-6-yloxy)-N-(1-ethynyl-1-methyl-prop-2-ynyl)-2-methylsulfanyl-acetamide]	–	≥ 80	–	–	–	143 to 145	≥ 80	≥ 80	≥ 80
CO/N=C/C(C)(C)NC(=O)C(Oc1cc(C)c2ncc(OC)cc2c1)SC (stereo not shown) [Compound 19, N-(2-Methoxyimino-1,1-dimethyl-ethyl)-2-(3-methoxy-8-methyl-quinolin-6-yloxy)-2-methylsulfanyl-acetamide]	≥ 80	≥ 80	–	–	–	121 to 124	≥ 80	≥ 80	≥ 80
CCOc1cnc2c(C)cc(OC(SC)C(=O)NC(C)(C)C#CCOC)cc2c1 (stereo not shown) [Compound 22]	≥ 80	≥ 80	≥ 80	≥ 80	≥ 80	107 to 109	–	–	–
C#CC(C)(COC)NC(=O)C(Oc1ccc2ncc(OC)cc2c1)SC (stereo not shown) [Compound 5, N-(1-Methoxymethyl-1-methyl-prop-2-ynyl)-2-(3-methoxy-quinolin-6-yloxy)-2-methylsulfanyl-acetamide]	≥ 80	≥ 80	–	–	–	112 to 118	≥ 80	≥ 80	≥ 80
CO/N=C/C(C)(C)NC(=O)C(Oc1ccc2ncc(SC)cc2c1)SC (stereo not shown) [Compound 27, N-(2-Methoxy-imino-1,1-dimethyl-ethyl)-2-methylsulfanyl-2-(3-methylsulfanyl-quinolin-6-yloxy)-acetamide]	≥ 80	≥ 80	–	–	–	120 to 122	≥ 80	≥ 80	≥ 80
C#CC(C)(C)NC(=O)C(Oc1ccc2ncc(OC)cc2c1)SC (stereo not shown) [Compound 10, N-(1,1-Dimethyl-prop-2-ynyl)-2-(3-methoxy-quinolin-6-yloxy)-2-methylsulfanyl-acetamide]	≥ 80	≥ 80	–	–	–	152 to 154	≥ 80	≥ 80	≥ 80
CC#CC(C)(C)NC(=O)C(Oc1cc(Cl)c2ncc(OC)cc2c1)SC (stereo not shown) [Compound 14, 2-(8-Chloro-3-methoxy-quinolin-6-yloxy)-N-(1,1-dimethyl-but-2-ynyl)-2-methylsulfanyl-acetamide]	≥ 80	≥ 80	≥ 80	≥ 80	≥ 80	133 to 136	–	–	–
COc1cnc2c(C)cc(OC(SC)C(=O)NC(C)(C)C)cc2c1 (stereo not shown) [Compound 16, N-tert-Butyl-2-(3-methoxy-8-methyl-quinolin-6-yloxy)-2-methylsulfanyl-acetamide]	≥ 80	–	–	–	–	147 to 150	≥ 80	≥ 80	≥ 80
C#CC(C)(C)NC(=O)C(Oc1cc(C)c2ncc(OCC)cc2c1)SC (stereo not shown) [Compound 25, N-(1,1-Dimethyl-prop-2-ynyl)-2-(3-ethoxy-8-methyl-quinolin-6-yloxy)-2-methylsulfanyl-acetamide]	–	≥ 80	–	–	–	160 to 162	≥ 80	≥ 80	≥ 80
